In US20150284342A1, “BIS(FLUOROALKYL)-1,4-BENZODIAZEPINONE COMPOUNDS” (BRISTOL-MYERS SQUIBB COMPANY, priority 2011, published 2015):

Legend:
[1] = test system: human ovarian teratocarcinoma xenograft PA-1; assay: Human tumor xenograft model in mice: PA-1 (combination with carboplatin); format: in vivo; details: carboplatin weekly, 90 mg/kg/adm
[2] = test system: ALL-SIL T-cell lymphoblastic leukemia; assay: Human tumor xenograft model in mice: ALL-SIL (combination with dasatinib); format: in vivo
[3] = test system: human T-ALL leukemia xenografts HPB-ALL; assay: Human tumor xenograft model in mice: HPB-ALL (combination with dexamethasone); format: in vivo; details: for Tumor Growth Delay / Tumor Growth Delay (LCK): target tumor size 3000 mg
Notch 1 = assay: Notch-CBF1 Transactivation Assay (Notch 1); format: cell-based; details: read-out: Notch 1 (IC50), HeLa cells, luciferase, rounded to 2 digits
Text: (§1) Table 12 denotes respective DNA quantity for the transfections.
(§2) Duplicates were used for each sample.

[4] = test system: TALL1 Human T-cell acute lymphoblastic leukemia; assay: Human tumor xenograft model in mice: TALL1; format: in vivo; details: 24 mg/kg, oral, QD × 15, 10 Day-on-2 Day-off
human tumor xenografts = assay: Human Tumor Xenograft Models in Mice (various tumors); format: in vivo; details: oral administration (PO)
[5] = test system: MDA-MB-468 Human Breast Carcinoma; assay: Human tumor xenograft model in mice: MDA-MB-468 (combination with paclitaxel); format: in vivo
[6] = High Throughput (HT) Metabolic Stability Panel, human liver microsomes; details: 0.5 μM compound, human liver microsomes, 10 min incubation
Method: (§3) Each compound was tested in duplicate.

[7] = High Throughput (HT) Metabolic Stability Panel, mouse liver microsomes; details: 0.5 μM compound, mouse liver microsomes, 10 min incubation
Method: as §3

[8] = test system: human breast carcinoma cell line MDA-MB-157; assay: Human tumor xenograft model in mice: MDA-MB-157; format: in vivo; details: 24 mg/kg, oral, QD × 15, 10 Day-on-2 Day-off
Notch 3 = assay: Notch-CBF1 Transactivation Assay (Notch 3); format: cell-based; details: read-out: Notch 3 (IC50), HeLa cells, luciferase, rounded to 2 digits
Text: as §1, §2

[9] = test system: ER receptor positive human breast carcinoma xenograft MCF7; assay: Human tumor xenograft model in mice: MCF7 (combination with Tamoxifen); format: in vivo
[10] = Dasatinib 10 mg/kg PO, QD x 49, target tumor size 1000 mg
[11] = Dexamethasone 3.75 mg/kg IP, QD x 14
[12] = Paclitaxel 12 mg/kg IV, Q7D x 6
[13] = Paclitaxel 12 mg/kg IV, Q7D x 6, target tumor size 500 mg
[14] = Tamoxifen 20 mg/kg IP, Q2D × 10

In the case of `N.N.O=C([O-])C1(C(=O)[O-])CCC1.[Pt+2]` [Carboplatin, carboplatin, reference compound], the “antitumor effect (LCK)” value [1] is reported as 2.1 LCK.
For `Cc1nc(Nc2ncc(C(=O)Nc3c(C)cccc3Cl)s2)cc(N2CCN(CCO)CC2)n1` [Dasatinib, dasatinib, reference compound], the “CR (%)” value ([2]; Dasatinib 10 mg/kg PO, QD x 49) was 0%, the “PR (%)” value ([2]; Dasatinib 10 mg/kg PO, QD x 49) was 0% and the “Tumor Growth Delay” value [2, 10] was 30.2 days. For the same molecule, the “Tumor Growth Delay (LCK)” value [2, 10] was 1.7 LCK and the “antitumor effect (LCK)” value ([2]; dasatinib alone, 10 mg/kg/adm, QD×49, PO) was 1.7 LCK.
With `C[C@@H]1C[C@H]2[C@@H]3CCC4=CC(=O)C=C[C@]4(C)[C@@]3(F)[C@@H](O)C[C@]2(C)[C@@]1(O)C(=O)CO` [Dexamethasone, dexamethasone, reference compound] the “CR (%)” value [3, 11] was 0%, the “PR (%)” value [3, 11] was 0% and the “Tumor Growth Delay” value [3, 11] was 5.6 days. The “Tumor Growth Delay (LCK)” value [3, 11] was 0.6 LCK, the “Tumor Growth Delay” value ([3]; Dexamethasone […] IP, QD x 14) was 5.8 days and the “Tumor Growth Delay (LCK)” value ([3]; Dexamethasone […] IP, QD x 14) was 0.7 LCK. For the same molecule, the “antitumor efficacy (LCK)” value ([3]; dexamethasone as a single agent at its MTD of 7.5 mpk) was 0.7 LCK.
In the case of `NC(=O)[C@@H](CCC(F)(F)F)[C@@H](CCC(F)(F)F)C(=O)N[C@H]1N=C(c2ccccc2)c2ccccc2NC1=O` [Example 2, (2R,3S)—N-((3S)-2-Oxo-5-phenyl-2,3-dihydro-1H-1,4-benzodiazepin-3-yl)-2,3-bis(3,3,3-trifluoropropyl)succinamide], the IC50 (Notch 1) is reported as 1.7 nM, the “Antitumor Activity TALL1 (LCK)” value [4] is reported as 2.4 LCK and the antitumor activity (human tumor xenografts) is reported as “showed antitumor activity”. For the same molecule, the “Antitumor Activity MDA-MB-468 (% TGI)” value ([5]; single agent, 24 mg/kg, oral, QD × 15, 10 Day-on-2 Day-off) was 87 % TGI, the “0.5 μM HLM (% Remaining)” value [6] was 88% and the “0.5 μM MsLM (% Remaining)” value [7] was 86%. The “Antitumor Activity MDA-MB-157 (% TGI)” value [8] was 85 % TGI and the IC50 (Notch 3) was 3.3 nM.
In the case of `NC(=O)[C@@H](CCCC(F)(F)F)[C@@H](CCC(F)(F)F)C(=O)N[C@H]1N=C(c2ccccc2)c2ccccc2NC1=O` [Example 19, (2R,3S)—N-((3S)-2-Oxo-5-phenyl-2,3-dihydro-1H-1,4-benzodiazepin-3-yl)-3-(4,4,4-trifluorobutyl)-2-(3,3,3-trifluoropropyl)succinamide], the IC50 (Notch 1) is reported as 1.3 nM, the “0.5 μM HLM (% Remaining)” value [6] is reported as 96% and the “0.5 μM MsLM (% Remaining)” value [7] is reported as 97%. The IC50 (Notch 3) was 3.8 nM.
For `COc1ccc2c(c1)NC(=O)[C@@H](NC(=O)[C@H](CCC(F)(F)F)[C@H](CCCC(F)(F)F)C(N)=O)N=C2c1ccccc1` [Example 20, (2R,3S)—N1-((3S)-8-Methoxy-2-oxo-5-phenyl-2,3-dihydro-1H-1,4-benzodiazepin-3-yl)-3-(4,4,4-trifluorobutyl)-2-(3,3,3-trifluoropropyl)succinamide], the IC50 (Notch 1) was 2.9 nM, the “0.5 μM HLM (% Remaining)” value [6] was 100% and the “0.5 μM MsLM (% Remaining)” value [7] was 100%. It also gave an IC50 (Notch 3) of 4.2 nM.
For `COCCNc1cccc2c1NC(=O)[C@@H](NC(=O)[C@H](CCC(F)(F)F)[C@H](CCC(F)(F)F)C(N)=O)N=C2c1ccccc1` [Example 21, (2R,3S)—N-((3S)-9-((2-Methoxyethyl)amino)-2-oxo-5-phenyl-2,3-dihydro-1H-1,4-benzodiazepin-3-yl)-2,3-bis(3,3,3-trifluoropropyl)succinamide], the IC50 (Notch 1) was 1.5 nM, the “0.5 μM HLM (% Remaining)” value [6] was 98% and the “0.5 μM MsLM (% Remaining)” value [7] was 82%. It also gave an IC50 (Notch 3) of 4.2 nM.
For `CC(=O)O[C@H]1C(=O)[C@@]2(C)[C@H]([C@H](OC(=O)c3ccccc3)[C@]3(O)C[C@H](OC(=O)[C@H](O)[C@@H](NC(=O)c4ccccc4)c4ccccc4)C(C)=C1C3(C)C)[C@]1(OC(C)=O)CO[C@@H]1C[C@@H]2O` [Paclitaxel, paclitaxel, reference compound], the “CR (%)” value [5, 12] was 0%, the “PR (%)” value [5, 12] was 0% and the “Tumor Growth Delay” value [5, 13] was 7.8 days. For the same molecule, the “Tumor Growth Delay (LCK)” value [5, 13] was 0.5 LCK and the “antitumor effect (LCK)” value ([5]; paclitaxel weekly, 12 mg/kg/adm) was 0.5 LCK.
In the case of `CC/C(=C(\c1ccccc1)c1ccc(OCCN(C)C)cc1)c1ccccc1` [Tamoxifen, reference compound], the “CR (%)” value [9, 14] is reported as 0%, the “PR (%)” value [9, 14] is reported as 0% and the “Tumor Growth Inhibition TGI” value ([9]; Tamoxifen 20 mg/kg IP, Q2D × 10, target tumor size 500 mg) is reported as 78%. The “% TGI” value ([9]; Tamoxifen at MTD dose of 20 mg/kg/adm, IP, Q2 DX12) was 78% and the “CR or PR” value ([9]; single agent) was “no CR or PR”.
